From patent US11324680B2, “Topical compositions” (priority 2017, dated 2022)

Tested on: Propionibacterium acnes
Experiment: Antimicrobial efficacy in analogy to challenge test NF EN ISO11930, protection against acne
Assay type: cell-based
Details: 24 h; for Log reduction: Propionibacterium acnes; for Propionibacterium acnes colony count: 22° C., initial contamination 310000 cfu/ml
Experimental: The antimicrobial efficacy is assessed in analogy to the regulatory challenge test method (NF EN ISO11930). Thus, solutions of the respective active(s) in ethanol are prepared and further dissolved in physiological serum with 0.85 wt.-% NaCl in the concentrations as outlined in table 1 under sterile conditions. The samples were solubilized in physiological serum supplemented with 1 wt.-% ethanol. A control was prepared under sterile condition based on a serum with 0.85 wt.-% NaCl and 1 wt.-% ethanol (C1). […] The wells are contaminated resulting in the initial contamination as outlined in table 1. After the contamination, each well was thoroughly mixed to ensure a homogeneous distribution of bacteria. Then each plate was incubated at 22° C. for 24 h. The counting of the (remaining) population is carried out 24 h after contamination.

## CCCCCCCC(=O)OCC(O)CO (centres unmarked) [glyceryl caprylate, Glyceryl caprylate]
Single active at 0.2 wt.-%
  Log reduction: 3
  Propionibacterium acnes colony count: 260 cfu/ml
Single active at 0.3 wt.-%
  Log reduction: 4.5
  Propionibacterium acnes colony count: 10 cfu/ml

## O=C(CO)[C@H](O)CO (racemic) [erythrulose]
Single active at 0.1 wt.-%
  Log reduction: 2
  Propionibacterium acnes colony count: 3300 cfu/ml
Single active at 0.3 wt.-%
  Log reduction: 3.5
  Propionibacterium acnes colony count: 100 cfu/ml
